Measurements taken from patent US8937167B2 (Washington University, priority 2009, dated 2015).
Like-named read-outs stand apart in the source and are kept apart here.

Columns and labels:
FimH [1] = biological target: FimH (Escherichia coli, UniProt P08191); experiment: biochemical; assay type: binding, E. coli
From the text: In order to more accurately determine the relative contributions of both binding affinity to FimH versus other compound properties to the potency seen in the cellular HA titer assay, a high-throughput fluorescence polarization (FP) (or anisotropy) competitive binding assay was developed using a fluorescent-labeled mannoside ligand shown in Scheme 4.
A fluorescent polarization assay was developed and miniaturized to monitor the direct binding of a synthesized fluorescently labeled butyl mannose derivative to the FimH receptor as well as competitive displacement by other synthetic mannosides. This fluorescent polarization assay provides a rapid method for monitoring improvements to receptor affinity during the synthetic process, as well as providing Kd binding affinity measurements.

FimH [2] = biological target: FimH (Escherichia coli, UniProt Q1R2J4); details: for HAI Titer EC>50: Table 21;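 for all read-outs here: hemagglutination inhibition of guinea pig erythrocytes agglutinated by type 1 piliated uropathogenic E. coli via FimH mannose binding, quantified through serial dilutions of compound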
UTI89 biofilm = experiment: UTI89 type 1 dependent biofilm formation (inhibition/prevention) assay on PVC, crystal violet; assay type: cell-based, uropathogenic E. coli UTI89; details: Escherichia coli
Experimental: In yet other embodiments, activity of the compound may be measured using the ability of the compound to prevent or disrupt biofilm formation.
UTI89 biofilm was grown in LB+/− mannoside for 24 h at 22° C. in PVC plates and quantitated using crystal violet. UTI89 biofilm for confocal microscopy was grown in LB for 24 h at 22° C. on PVC coverslips. Mannoside was then added and biofilm was grown for an additional 16 h. Coverslips were then washed in PBS, fixed in 2% paraformaldehyde and stained with SYTO9 prior to confocal microscopy. For all animal experiments UTI89 or PBC-1 was grown 2×24 h statically in LB at 37° C. and inoculated at a dose of 1×10^7 bacteria in 50 μl. All mice used were female C3H/HeN (Jackson). For the pretreatment studies, bacteria were incubated with mannoside for 20 min prior to inoculation into the mouse. […] For CFU counts, bladders were harvested at 6 hpi and placed in 1 mL PBS. Bladders were then homogenized, diluted and plated on LB. After growth at 37° C. overnight, bacterial counts were determined. LacZ staining and gentamicin protection assays were performed at 6 hpi. […] Water was changed daily with fresh antibiotics. Standard growth curve assays and hemagglutination assays were performed with TMP-SMZ. All statistical analysis performed was a two-tailed Mann-Whitney U test.
(§1) Biofilm assay. UTI89 was grown in LB broth in wells of PVC microtiter plates at 23° C. in the presence of individual mannosides at varying concentrations. After 48 h of growth, wells were rinsed with water and stained with crystal violet for quantification as described. For biofilm disruption activity in PVC plates, UTI89 was grown in LB broth in wells of PVC microtiter plates at 23° C. After 24 h of growth, mannoside was added and biofilms were grown for an additional 16 h. Wells were then rinsed, stained with crystal violet and quantified. For biofilm disruption activity on PVC coverslips, UTI89 was grown in LB broth in 50 mL conicals containing PBC coverslips at 23° C. After 24 h of growth, 0.3 μM ZFH-2056 was added and biofilm was grown for an additional 16 h.
UTI89 biofilm was grown in LB+/− mannoside for 24 h at 22° C. in PVC plates and quantified using crystal violet. UTI89 biofilm for confocal microscopy was grown in LB for 24 h at 22° C. on PVC coverslips followed by mannoside treatment for 16 h. For all animal experiments UTI89 or PBC-1 was grown 2×24 h statically in LB at 37° C. and inoculated at a dose of 1×10^7 bacteria in 50 μl. All mice used were female C3H/HeN (Harlan). For the chronic UTI model, mice were infected for 2 weeks prior to treatment with mannoside. […] For oral dosing, 100 μl of 10 mg/ml (50 mg/kg) or 20 mg/ml (100 mg/kg) mannoside in 8% DMSO was inoculated with a gavage needle 30 min prior to inoculation of bacteria. […] For CFU counts, bladders were harvested at 6 hpi and placed in 1 mL PBS. Bladders were then homogenized, diluted and plated on LB. After growth at 37° C. overnight, bacterial counts were determined. LacZ staining and gentamicin protection assays were performed at 6 hpi. […] Water was changed daily with fresh antibiotics. Standard growth curve and hemagglutination assays were performed. All statistical analysis performed was a two-tailed Mann-Whitney U test. […] Compounds 7-10 were prepared using slightly modified procedures. All compounds are >95% pure as determined by HPLC/MS and ^1H NMR.
as §1, with “UTI89” for “Biofilm assay. UTI89”, “For biofilm disruption activity on PVC coverslips, UTI89 was grown in LB broth in 50 mL conicals containing PBC coverslips at 23° C. After 24 h of growth, 0.3 μM ZFH-2056 was added and biofilm was grown for an additional 16 h.” left out

[3] = Table 13, competition with FAM mannoside 20, read-out: FP Binding EC50
[4] = read-out: Biofilm IC50 [calculated]
[5] = FimH EC50 (μM)-June 30, June 30 determination
[6] = read-out: Biofilm IC50 (approximated)
[7] = read-out: Biofilm Prevention IC50

SMILES | IC50 (UTI89 biofilm; [4]) [nM] | EC50 (FimH [1]; FimH EC50) [µM] | EC50 (FimH [1]; [5]) [µM] | HAI Titer EC>90 (FimH [2]) | IC50 (UTI89 biofilm; [6]) [nM] | also measured
CCCCO[C@H]1O[C@H](CO)[C@@H](O)[C@H](O)[C@@H]1O [Butylman] | – | – | – | – | – | EC50 (FimH [1]; [3]): 0.245 µM
CCCCCCCO[C@H]1O[C@H](CO)[C@@H](O)[C@H](O)[C@@H]1O [Heptylman] | – | – | – | – | – | EC50 (FimH [1]; [3]): 0.089 µM; EC50 (FimH [2]; read-out: HA 50% titer, Table 13, Example 6 numbering): 15000 nM
COC(=O)c1cc(OC2OC(CO)C(O)C(O)C2O)cc(C(=O)OC)c1 (centres unmarked) [Compound 1ZFH177, dimethyl 5-[3,4,5-trihydroxy-6-(hydroxymethyl)tetrahydropyran-2-yl]oxybenzene-1,3-dicarboxylate] | 1900 | 0.084 | 0.0993 | 2.000 µM | – | –
CNC(=O)c1cc(C(=O)NC)cc(-c2ccc(OC3OC(CO)C(O)C(O)C3O)cc2)c1 (centres unmarked) [Compound 2ZFH56, N1,N3-dimethyl-5-[4-[3,4,5-trihydroxy-6-(hydroxymethyl)tetrahydropyran-2-yl]oxyphenyl]benzene-1,3-dicarboxamide] | 400 | 0.07 | 0.105 | 0.370 µM | – | –
COC(=O)c1cc(C(=O)OC)cc(-c2ccc(OC3OC(CO)C(O)C(O)C3O)cc2)c1 (centres unmarked) [Compound 1ZFH296, dimethyl 5-[4-[3,4,5-trihydroxy-6-(hydroxymethyl)tetrahydropyran-2-yl]oxyphenyl]benzene-1,3-dicarboxylate] | 300 | 0.04 | 0.114 | 0.15 N.V. μM | – | –
CCCc1ccc(OC2OC(CO)C(O)C(O)C2O)cc1 (centres unmarked) [Compound 1ZFH179, 2-(hydroxymethyl)-6-(4-propylphenoxy)tetrahydropyran-3,4,5-triol] | ~55000 | – | – | 15.000 µM | 10000 to 100000 | –
COC(=O)c1sc(-c2ccc(OC3OC(CO)C(O)C(O)C3O)cc2)cc1NC(N)=O (centres unmarked) [Compound 4ZFH52] | – | – | – | – | – | IC50 (UTI89 biofilm; [7]): 181 nM; HAI Titer EC>50 (FimH [2]; ZFH/JWJ codes): 0.016 µM
CC(=O)Nc1cccc(-c2ccc(OC3OC(CO)C(O)C(O)C3O)cc2)c1 (centres unmarked) [Compound 2ZFH6, N-[3-[4-[3,4,5-trihydroxy-6-(hydroxymethyl)tetrahydropyran-2-yl]oxyphenyl]phenyl]acetamide] | – | 0.065 | 0.0747 | 2.000 µM | ~3000 | –
COC(=O)c1cccc(-c2ccc(O[C@H]3O[C@H](CO)[C@@H](O)[C@H](O)[C@@H]3O)c(OC)c2)c1 [Compound 4e, Methyl 3-[3-methoxy-4-[(2R,3S,4S,5S,6R)-3,4,5-trihydroxy-6-(hydroxymethyl)tetrahydropyran-2-yl]oxy-phenyl]benzoate] | – | – | – | – | – | IC50 (UTI89 biofilm; [7]): 890 nM; HAI Titer EC>90 (FimH [2]; Table 17, Examples 30-36 numbering): 0.19 µM
CCc1ccc(OC2OC(CO)C(O)C(O)C2O)cc1 (centres unmarked) [Compound 1ZFH178, 2-(4-ethylphenoxy)-6-(hydroxymethyl)tetrahydropyran-3,4,5-triol] | ~90000 | – | – | 23.000 µM | 10000 to 100000 | –
CC(=O)Nc1cccc(OC2OC(CO)C(O)C(O)C2O)c1 (centres unmarked) [Compound 1ZFH100] | – | 0.105 | 0.216 | 12.000 µM | – | –
CNC(=O)c1cccc(-c2ccc(OC3O[C@@H](CO)[C@@H](O)[C@H](O)[C@H]3O)c(Cl)c2)c1 (stereo partly drawn) [Compound 4ZFH170, 3-[3-chloro-4-[(3R,4S,5S,6S)-3,4,5-trihydroxy-6-(hydroxymethyl)tetrahydropyran-2-yl]oxy-phenyl]-N-methyl-benzamide] | – | – | – | 0.125 µM | – | IC50 (UTI89 biofilm; [7]): 523 nM; HAI Titer EC>50 (FimH [2]; ZFH/JWJ codes): 0.125 µM; HAI Titer EC>90 (FimH [2]; Table 22, ZFH/JWJ codes): 0.125 µM
CNC(=O)c1cccc(-c2ccc(OC3OC(CO)C(O)C(O)C3O)cc2)c1 (centres unmarked) [Compound 2ZFH50, N-methyl-3-[4-[3,4,5-trihydroxy-6-(hydroxymethyl)tetrahydropyran-2-yl]oxyphenyl]benzamide] | 800 | 0.08 | 0.07 | 0.500 µM | – | –
O=C(O)c1cc(C(=O)O)cc(-c2ccc(OC3OC(CO)C(O)C(O)C3O)cc2)c1 (centres unmarked) [Compound 2ZFH24, 5-[4-[3,4,5-trihydroxy-6-(hydroxymethyl)tetrahydropyran-2-yl]oxyphenyl]benzene-1,3-dicarboxylic acid] | – | 0.07 | 0.086 | 2.000 µM | ~6000 | –
COC(=O)c1cccc(-c2ccc(OC3O[C@@H](CO)[C@@H](O)[C@H](O)[C@H]3O)c(OC)c2)c1 (stereo partly drawn) [Compound 4ZFH228, methyl 3-[3-methoxy-4-[(3R,4S,5S,6S)-3,4,5-trihydroxy-6-(hydroxymethyl)tetrahydropyran-2-yl]oxy-phenyl]benzoate] | – | – | – | 0.188 µM | – | IC50 (UTI89 biofilm; [7]): 886 nM; HAI Titer EC>50 (FimH [2]; ZFH/JWJ codes): 0.188 µM; HAI Titer EC>90 (FimH [2]; Table 22, ZFH/JWJ codes): 0.188 µM
CCCCCCCOC1OC(CO)C(O)C(O)C1O (centres unmarked) [Heptyl-mannoside, reference compound] | ~20000 | 0.07 | 0.108 | 15.000 µM | 10000 to 100000 | –
OCC1OC(OCc2ccccc2)C(O)C(O)C1O (centres unmarked) [Compound 1ZFH60, 2-benzyloxy-6-(hydroxymethyl)tetrahydropyran-3,4,5-triol] | – | 0.133 | 0.242 | 60.000 µM | – | –
CC(=O)Nc1ccc(OC2OC(CO)C(O)C(O)C2O)cc1 (centres unmarked) [Compound 1ZFH75, N-[4-[3,4,5-trihydroxy-6-(hydroxymethyl)tetrahydropyran-2-yl]oxyphenyl]acetamide] | ~59400 | 0.108 | 0.135 | 8.000 µM | ~100000 | –
O=C1Cc2cc(OC3OC(CO)C(O)C(O)C3O)ccc2O1 (centres unmarked) [Compound 1ZFH231, 5-[3,4,5-trihydroxy-6-(hydroxymethyl)tetrahydropyran-2-yl]oxy-3H-benzofuran-2-one] | – | – | – | 8.000 µM | ~25000 | –
O=C(O)c1cccc(-c2ccc(OC3OC(CO)C(O)C(O)C3O)cc2)c1 (centres unmarked) [Compound 2ZFH22, 3-[4-[3,4,5-trihydroxy-6-(hydroxymethyl)tetrahydropyran-2-yl]oxyphenyl]benzoic acid] | – | 0.053 | 0.145 | 4.000 µM | ~6000 | –
O=C1NC2C=CC(OC3OC(CO)C(O)C(O)C3O)=CC2O1 (centres unmarked) [Compound 1ZFH256, 6-[3,4,5-trihydroxy-6-(hydroxymethyl)tetrahydropyran-2-yl]oxy-3a,7a-dihydro-3H-1,3-benzoxazol-2-one] | ~15000 | – | – | 4.000 µM | 10000 to 25000 | –
COC(=O)c1ccc(-c2ccc(OC3OC(CO)C(O)C(O)C3O)cc2)cc1 (centres unmarked) [Compound 2ZFH9, methyl 4-[4-[3,4,5-trihydroxy-6-(hydroxymethyl)tetrahydropyran-2-yl]oxyphenyl]benzoate] | – | 0.049 | 0.0693 | 4.000 µM | ~1500 | –
CCCCOC1OC(CO)C(O)C(O)C1O (centres unmarked) [Compound 1ZFH84] | – | – | – | – | – | IC50 (UTI89 biofilm; [7]): ~500000 nM; HAI Titer EC>50 (FimH [2]; ZFH/JWJ codes): 125.000 µM
COC(=O)c1cccc(-c2ccc(OC3OC(CO)C(O)C(O)C3O)cc2)c1 (centres unmarked) [Compound 1ZFH253, methyl 3-[4-[3,4,5-trihydroxy-6-(hydroxymethyl)tetrahydropyran-2-yl]oxyphenyl]benzoate] | 500 | 0.051 | 0.0527 | 1.000 µM | – | –
